# From US9855270B2, “Methods and compositions for modulating estrogen receptor mutants” (priority 2014, dated 2018)
# Where two headings read alike, the source gives them in different places.
# Tests used:
# [1] = system: MCF-7 cells (negative control); test: MCF-7 Stable Cell Line Viability (UbC HA-ER-α series); format: cell-based; settings: Receptor None (MCF-7 negative control); for EC50: Homo sapiens, MCF7, read-out: Potency (EC50; nM)
# Method in brief: (§1)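 Stable HA-ER-α MCF-7 lines are treated with compound for 5 days in phenol-free, charcoal-stripped medium. Viability is measured by CellTiter-Glo and expressed relative to the time-zero plate.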
# [2] = system: MCF-7 cells stably expressing UbC HA-ER-α wild-type; test: as above; format: cell-based; settings: UbC HA-ER-α Wild-type; for EC50: Homo sapiens, MCF7, read-out: Potency (EC50; nM); for Percent inhibition compared to vehicle: 5-Day Incubation; for Efficacy (Emax): Day 5 relative to Day 0
# Method in brief: (§2)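 Lentivirally transduced MCF-7 (HA-ER-α WT/mutant under EF1 or UbC; empty vector control); phenol-free RPMI + 10% CSS; 10-pt 1:5 dilution, 10 μM–5 pM final; 5 d; CellTiter-Glo; (RLU − background)/RLU T0.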
# [3] = system: MCF-7 cells stably expressing EF1 HA-ER-α L536P; test: cells; format: cell-based; settings: EF1 HA-ER-α L536P; for Percent inhibition compared to vehicle: 5-Day Incubation; for Efficacy (Emax): Day 5 relative to Day 0; for EC50: Homo sapiens, MCF7, read-out: Potency (EC50; nM)
# Method in brief: as §2
# [4] = system: MCF-7 cells stably expressing EF1 HA-ER-α Y537N; test: cells; format: cell-based; settings: EF1 HA-ER-α Y537N; for Percent inhibition compared to vehicle: 5-Day Incubation; for Efficacy (Emax): Day 5 relative to Day 0; for EC50: Homo sapiens, MCF7, read-out: Potency (EC50; nM)
# Method in brief: as §2
# [5] = system: MCF-7 cells stably expressing UbC HA-ER-α L536R; test: cells; format: cell-based; settings: UbC HA-ER-α L536R; for EC50: Homo sapiens, MCF7, read-out: Potency (EC50; nM); for Percent inhibition compared to vehicle: 5-Day Incubation; for Efficacy (Emax): Day 5 relative to Day 0
# Method in brief: as §1
# [6] = system: MCF-7 cells stably expressing EF1 HA-ER-α wild-type; test: MCF-7 Stable Cell Line Viability (EF1 HA-ER-α series); format: cell-based; settings: EF1 HA-ER-α Wild-type; for Percent inhibition compared to vehicle: 5-Day Incubation; for Efficacy (Emax): Day 5 relative to Day 0; for EC50: Homo sapiens, MCF7, read-out: Potency (EC50; nM)
# Method in brief: as §2
# [7] = system: MCF-7 cells transduced with an empty EF1 lentiviral vector (negative control); test: as above; format: cell-based; settings: for EC50: Homo sapiens, MCF7, Receptor None (empty EF1 lentiviral vector), read-out: Potency (EC50; nM); for Percent inhibition compared to vehicle / Efficacy (Emax): Receptor None (empty EF1 lentiviral vector); for Percent inhibition compared to vehicle: 5-Day Incubation; for Efficacy (Emax): Day 5 relative to Day 0
# Method in brief: as §2
# [8] = system: MCF-7 cells stably expressing ER-α mutants; settings: 5 day proliferation assays; depending on the mutation and assay format
# Procedure: Potency and efficacy of ERM 1-3 were measured in vitro in ER dependent transcriptional reporter assays and viability assays of MCF-7 cells stably expressing ER-α mutants.
# MCF-7 Mutant ER-α Stable Cell Line Generation: MCF-7 cells stably expressing wild-type or ER-α mutants were generated by subcloning ESR1 wild-type and mutant cDNAs containing an amino terminal hemagglutinin tag into pCDH-EF1-MCS-(PGK-Puro) (referred to as EF1 HA-ER-α) and pCDH-UbC-MCS-EF1-Hygro (referred to as UbC HA-ER-α) (System Biosciences). The resulting plasmids, in addition to an empty vector negative control, were subsequently cotransfected into HEK293T cells with the pPACKH1 packaging plasmid mix (System Biosciences) according to the manufacturer's protocol. Four days post transfection lentiviral particles were purified from the cell medium, tiered and stored at −80° C. MCF-7 cells were transduced with the purified viral particles and stable cell lines were selected by growth in RPMI containing 10% FBS plus 1 μG/mL puromycin or 200 μG/mL hygromycin for pCDH-EF1-MCS-(PGK-Puro) and pCDH-UbC-MCS-EF1-Hygro, respectively.
# MCF-7 Stable Cell Line Viability: MCF-7 cells were enumerated with a hemacytometer adjusted to a concentration of 40,000 cells per mL in Phenol Free RPMI containing 10% CSS with NEAA and Sodium Pyruvate. 16 microliters of the cell suspension was added to each well of a 384 well tissue culture treated white clear bottom polystyrene plate (Corning) using a Matrix 16 channel electronic pipette. The cells were incubated overnight to allow the cells to adhere. […] The “average” of the relative luminescence units (RLUs) of the wells are considered to be the baseline value at time=zero. […] The relative luminescence units (RLUs) of each well were measured, and relative proliferation (fold) of each sample was determined as follows: (RLU sample−RLU background)/(RLU at T=0)=relative proliferation
# Potency and efficacy of ERM 4-23 were measured in vitro in ER dependent transcriptional reporter assays and viability assays of MCF-7 cells stably expressing ER-α mutants.
# [9] = Antagonist Mode, −E2 (Table 27)
structure (smiles),measurement,setting,value
"CC1=C(c2cccc(O)c2)[C@H](c2ccc(OCCN3CC(CF)C3)cc2)Oc2ccc(O)cc21 [Compound 4-23, (S)-2-(4-(2-(3-(fluoromethyl)azetidin-1-yl)ethoxy)phenyl)-3-(3-hydroxyphenyl)-4-methyl-2H-chromen-6-ol]",EC50,"[1]; Agonist Mode, −E2",0.227 ± 0.21 nM
same,EC50,"[1]; Antagonist Mode, +E2",0.378 ± 0.216 nM
same,Percent inhibition compared to vehicle,"[1]; Agonist Mode, −E2, 5-Day Incubation",31%
same,Efficacy (Emax),"[1]; Agonist Mode, −E2, Day 5 relative to Day 0",1.20 ± 0.27
same,Percent inhibition compared to vehicle,"[1]; Antagonist Mode, +E2, 5-Day Incubation",66%
same,Efficacy (Emax),"[1]; Antagonist Mode, +E2, Day 5 relative to Day 0",1.08 ± 0.04
same,EC50,"[2]; Agonist Mode, −E2",4.04 ± 8.01 nM
same,EC50,"[2]; Antagonist Mode, +E2",0.599 ± 0.3 nM
same,Percent inhibition compared to vehicle,"[2]; Agonist Mode, −E2",39%
same,Efficacy (Emax),"[2]; Agonist Mode, −E2",1.13 ± 0.13
same,Percent inhibition compared to vehicle,"[2]; Antagonist Mode, +E2",76%
same,Efficacy (Emax),"[2]; Antagonist Mode, +E2",1.20 ± 0.10
same,Percent inhibition compared to vehicle,"[3]; Agonist Mode, −E2",62%
same,Efficacy (Emax),"[3]; Agonist Mode, −E2",3.11 ± 0.40
same,Percent inhibition compared to vehicle,"[3]; Antagonist Mode, +E2",64%
same,Efficacy (Emax),"[3]; Antagonist Mode, +E2",3.25 ± 0.07
same,EC50,"[3]; Antagonist Mode, +E2",15.1 ± 13.6 nM
same,EC50,[3]; [9],4.78 ± 4.67 nM
same,Percent inhibition compared to vehicle,"[4]; Agonist Mode, −E2",88%
same,Efficacy (Emax),"[4]; Agonist Mode, −E2",0.74 ± 0.01
same,Percent inhibition compared to vehicle,"[4]; Antagonist Mode, +E2",87%
same,Efficacy (Emax),"[4]; Antagonist Mode, +E2",0.70 ± 0.01
same,EC50,"[4]; Antagonist Mode, +E2",45.5 ± 51.7 nM
same,EC50,[4]; [9],16 ± 17.6 nM
same,EC50,"[5]; Agonist Mode, −E2",0.334 ± 0.27 nM
same,EC50,"[5]; Antagonist Mode, +E2",2.58 ± 0.181 nM
same,Percent inhibition compared to vehicle,"[5]; Agonist Mode, −E2",53%
same,Efficacy (Emax),"[5]; Agonist Mode, −E2",1.80 ± 0.26
same,Percent inhibition compared to vehicle,"[5]; Antagonist Mode, +E2",71%
same,Efficacy (Emax),"[5]; Antagonist Mode, +E2",1.73 ± 0.31
same,Percent inhibition compared to vehicle,"[6]; Agonist Mode, −E2",62%
same,Efficacy (Emax),"[6]; Agonist Mode, −E2",2.17 ± 0.03
same,Percent inhibition compared to vehicle,"[6]; Antagonist Mode, +E2",68%
same,Efficacy (Emax),"[6]; Antagonist Mode, +E2",2.17 ± 0.29
same,EC50,"[6]; Antagonist Mode, +E2",8.65 ± 10.5 nM
same,EC50,[6]; [9],2.13 ± 2.06 nM
same,EC50,"[7]; Antagonist Mode, +E2",2.81 ± 3.28 nM
same,EC50,[7]; [9],0.286 ± 0.294 nM
same,Percent inhibition compared to vehicle,"[7]; Agonist Mode, −E2",52%
same,Efficacy (Emax),"[7]; Agonist Mode, −E2",1.06 ± 0.24
same,Percent inhibition compared to vehicle,"[7]; Antagonist Mode, +E2",76%
same,Efficacy (Emax),"[7]; Antagonist Mode, +E2",0.96 ± 0.12
same,reduced the number of viable cells (compared to DMSO control),[8],49%-90%
